Data on 17 compounds can be found in ChEMBL document CHEMBL1126373, “HIV and reverse transcriptase inhibition by tannins” (Bioorg Med Chem Lett, 1992).

In series [1] the test system is Human immunodeficiency virus 1. Kind of series: Anti-HIV activity in cell culture assay expressed as EC50 values. The following applies: Human immunodeficiency virus 1. It is filed as functional, organism-based.
Series [2] deals with Human immunodeficiency virus 1. As to the kind of experiment: Therapeutic index was determined. The following applies: read-out: Therapeutic index.
Series [3] has as its system Human immunodeficiency virus 1. As to the kind of experiment: Inhibition against HIV replication in cell culture at 20 ug/mL. The series is classed as functional. The following applies: Human immunodeficiency virus 1.
Series [4] deals with Human immunodeficiency virus 1. As to the kind of experiment: Anti-HIV activity in cell culture assay expressed as IC50 values. It is filed as functional, organism-based.
Series [5] concerns the target Human immunodeficiency virus type 1 reverse transcriptase (Human immunodeficiency virus 1) (UniProt Q72547). As to the kind of experiment: Inhibition against HIV- reverse transcriptase in cell culture at 20 ug/mL.

pEC50, pIC50: −log10 of the molar value.

`CC1(C)CC[C@]2(C(=O)O[C@@H]3O[C@H](CO)[C@@H](O)[C@H](O)[C@H]3O)CC[C@]3(C)C(=CCC4[C@@]5(C)C[C@@H](O)[C@@H]6OC(=O)c7cc(O)c(O)c(O)c7-c7c(cc(O)c(O)c7O)C(=O)OC[C@@]6(CO)C5CC[C@]43C)C2C1` (stereo partly specified) showed a pEC50 in series [1] of 4.74. The selectivity ratio in series [2] came out at 1.6. In series [3], this compound came in with an inhibition at 20 µg/mL of 47%. In series [4] (Human immunodeficiency virus 1), this compound had a pIC50 of 4.55. The compound further had an inhibition in series [5] of 17%.

Take `Oc1cc(O)c2c(c1)O[C@@]1(c3ccc(O)c(O)c3)Oc3cc(O)c4c(c3[C@@H]2[C@H]1O)O[C@H](c1ccc(O)c(O)c1)[C@H](O)[C@H]4c1c(O)cc(O)c2c1O[C@H](c1ccc(O)c(O)c1)[C@H](O)C2` [CINNAMTANNIN B1]: the pEC50 in series [1] is 4.68. Further, the selectivity ratio in series [2] is more than 1.2. The inhibition at 20 µg/mL in series [3] is 90%. For the same compound, the pIC50 in series [4] (Human immunodeficiency virus 1) is less than 4.60. In addition, the inhibition in series [5] came out at 13%.

Take `O=C(OC[C@@H]1O[C@@H](OC(=O)c2cc(O)c(O)c(O)c2)[C@@H](OC(=O)c2cc(O)c(O)c(O)c2)[C@@H](OC(=O)c2cc(O)c(O)c(O)c2)[C@@H]1OC(=O)c1cc(O)c(O)c(O)c1Oc1cc2c(c(O)c1O)-c1c(cc(O)c(O)c1O)C(=O)OC[C@@H]1O[C@@H](OC(=O)c3cc(O)c(O)c(O)c3)[C@@H](OC(=O)c3cc(O)c(O)c(O)c3)[C@@H](OC(=O)c3cc(O)c(O)c(O)c3)[C@@H]1OC2=O)c1cc(O)c(O)c(O)c1`: in series [1], the pEC50 was 4.92. Further, the selectivity ratio in series [2] was determined as 3.3. In series [3], this compound gave an inhibition at 20 µg/mL of 50%. The same compound showed a pIC50 in series [4] (Human immunodeficiency virus 1) of 4.41. In series [5], the inhibition amounted to 0%.

As to `Oc1cc(O)c2c(c1)O[C@H](c1ccc(O)c(O)c1)[C@H](O)[C@H]2c1c(O)cc(O)c2c1O[C@@]1(c3ccc(O)c(O)c3)Oc3cc(O)c4c(c3[C@@H]2[C@H]1O)O[C@H](c1ccc(O)c(O)c1)[C@H](O)[C@H]4c1c(O)cc(O)c2c1O[C@H](c1ccc(O)c(O)c1)[C@H](O)C2` [CINNAMTANNIN B2], the pEC50 in series [1] was 4.82. Besides, the selectivity ratio in series [2] is more than 1.7. Also, the inhibition at 20 µg/mL in series [3] worked out at 73%. Moreover, in series [4] (Human immunodeficiency virus 1), the pIC50 is less than 4.60. Besides, in series [5], the inhibition worked out at 19%.

The compound `O=C(OC[C@H]1OC(O)[C@@](O)(COC(=O)c2cc(O)c(O)c(O)c2)[C@@H]1OC(=O)c1cc(O)c(O)c(O)c1)c1cc(O)c(O)c(O)c1` (stereo partly specified) showed a pEC50 in series [1] of 4.35. The selectivity ratio in series [2] came out at 0.9. Also, testing at 20 µg/mL in series [3] gave an inhibition of 30%. For the same compound, the pIC50 in series [4] (Human immunodeficiency virus 1) was 4.40. Moreover, the inhibition in series [5] came to 25%.

Compound `O=C1OCC2OC(=O)c3cc(O)c(O)c(O)c3-c3c(O)c(O)c(O)c4c3C(=O)OC(C2OC(=O)c2cc(O)c(O)c(O)c2-c2c1cc(O)c(O)c2O)C1OC(=O)C2C4=C(O)C(=O)C23Oc2cc(O)c4c(c2[C@H]13)O[C@H](c1ccc(O)c(O)c1)[C@@H](O)C4` (stereo partly specified) showed a negative-log EC50 (pEC50) in series [1] of 5.40. Further, the selectivity ratio in series [2] was found to be 3.8. In series [3], testing at 20 µg/mL gave an inhibition of 89%. In addition, the pIC50 in series [4] (Human immunodeficiency virus 1) is 4.82. This compound came in with an inhibition in series [5] of 23%.

Regarding `O=C(OC[C@H]1OC(O)[C@@](O)(COC(=O)c2cc(O)c(O)c(O)c2)[C@@H]1O)c1cc(O)c(O)c(O)c1` (stereo partly specified) [HAMAMELITANNIN], the negative-log EC50 (pEC50) in series [1] is 4.30. The selectivity ratio in series [2] came to 0.9. In series [3], this compound returned an inhibition at 20 µg/mL of 40%. In addition, the pIC50 in series [4] (Human immunodeficiency virus 1) was 4.35. The compound further displayed an inhibition in series [5] of 16%.

Regarding `O=C1OCC2OC(=O)c3cc(O)c(O)c(O)c3-c3c(O)c(O)c(O)c4c3C(=O)OC(C2OC(=O)c2cc(O)c(O)c(O)c2-c2c1cc(O)c(O)c2O)C1OC(=O)c2c-4c(O)c(O)c(O)c2[C@@H]1[C@@]1(O)O[C@@H](CO)[C@@H](O)[C@H]1O` (stereo partly specified), the negative-log EC50 (pEC50) in series [1] was 4.46. Moreover, the selectivity ratio in series [2] came to 0.4. The same compound came in with an inhibition at 20 µg/mL in series [3] of 35%. Also, the pIC50 in series [4] (Human immunodeficiency virus 1) is 4.82. Also, the inhibition in series [5] worked out at 27%.

Regarding `O=C1OCC2OC(=O)c3cc(O)c(O)c(O)c3-c3c(O)c(O)c(O)c4c3C(=O)OC(C2OC(=O)c2cc(O)c(O)c(O)c2-c2c1cc(O)c(O)c2O)C1OC(=O)c2c-4c(O)c(O)c(O)c2[C@@H]1O` (stereo partly specified), the pEC50 in series [1] is 4.82. Also, the selectivity ratio in series [2] came to 1. The compound also returned an inhibition at 20 µg/mL in series [3] of 90%. This compound had a pIC50 in series [4] (Human immunodeficiency virus 1) of 4.82. The same compound gave an inhibition in series [5] of 40%.

In series [5], `O=C(OC[C@H]1O[C@@H](OC(=O)c2cc(O)c(O)c(O)c2)[C@H](OC(=O)c2cc(O)c(O)c(O)c2)[C@@H](OC(=O)c2cc(O)c(O)c(O)c2)[C@@H]1OC(=O)c1cc(O)c(O)c(O)c1)c1cc(O)c(O)c(O)c1` (stereo in doubt; 11) returned an inhibition of 0%.

Consider `O=C(O[C@@H]1Cc2c(O)cc(O)cc2O[C@@H]1c1ccc(O)c(O)c1)c1cc(O)c(O)c(O)c1` [EPICATECHIN GALLATE], for which the pEC50 in series [1] was less than 4.60. In addition, the inhibition at 20 µg/mL in series [3] is 40%. The same compound gave a pIC50 in series [4] (Human immunodeficiency virus 1) of less than 4.60. Besides, the inhibition in series [5] was determined as 5%.

As for `O=C(/C=C/c1ccc(O)c2c1[C@H](C(=O)O[C@H](Cc1ccc(O)c(O)c1)C(=O)O)[C@@H](c1ccc(O)c(O)c1)O2)O[C@H](Cc1ccc(O)c(O)c1)C(=O)O` [MAGNESIUM LITHOSPERMATE B], the pEC50 in series [1] is less than 4.60. This compound showed an inhibition at 20 µg/mL in series [3] of 35%. In series [4] (Human immunodeficiency virus 1), this compound showed a negative logarithm of the IC50 (pIC50) of less than 4.60. The same compound registered an inhibition in series [5] of 18%.

Take `Oc1cc(O)c2c(c1)O[C@@]1(c3ccc(O)c(O)c3)Oc3cc(O)c4c(c3[C@@H]2[C@H]1O)O[C@H](c1ccc(O)c(O)c1)[C@H](O)C4` [PROANTHOCYANIDIN A2]: the pEC50 in series [1] was less than 4.60. In series [3], this compound gave an inhibition at 20 µg/mL of 30%. The compound also had a pIC50 in series [4] (Human immunodeficiency virus 1) of less than 4.60. Moreover, the inhibition in series [5] was 18%.

`Oc1cc(O)c2c(c1)O[C@H](c1ccc(O)c(O)c1)[C@H](O)[C@H]2c1c(O)cc(O)c2c1O[C@H](c1ccc(O)c(O)c1)[C@H](O)C2` [PROCYANIDIN B2]: the pEC50 in series [1] is less than 4.60. The compound also displayed an inhibition at 20 µg/mL in series [3] of 40%. Also, the pIC50 in series [4] (Human immunodeficiency virus 1) was less than 4.60. The compound further yielded an inhibition in series [5] of 21%.

For the compound `O=C(OC[C@H]1O[C@@H](OC(=O)c2cc(O)c(O)c(O)c2)[C@H](OC(=O)c2cc(O)c(O)c(O)c2)[C@@H](OC(=O)c2cc(O)c(O)c(O)c2)[C@@H]1OC(=O)c1cc(O)c(O)c(O)c1)c1cc(O)c(O)c(O)c1` (stereo in doubt; 11) [PENTAGALLOYL GLUCOSE], the pEC50 in series [1] is 4.74. Also, the selectivity ratio in series [2] came out at 2.5. For the same compound, in series [3], the inhibition at 20 µg/mL amounted to 65%. Moreover, the pIC50 in series [4] was 4.35.

`O=C(OC[C@H]1O[C@@H](OC(=O)c2cc(O)c(O)c(O)c2)[C@H](OC(=O)c2cc(O)c(O)c(O)c2)[C@@H](OC(=O)c2cc(O)c(O)c(O)c2)[C@@H]1OC(=O)c1cc(O)c(O)c(O)c1)c1cc(O)c(O)c(O)c1` (stereo in doubt; 10): in series [5], the inhibition was 2%.

Take `O=C(O[C@@H]1[C@@H](c2c(O)cc(O)c3c2O[C@H](c2ccc(O)c(O)c2)[C@H](OC(=O)c2cc(O)c(O)c(O)c2)C3)c2c(O)cc(O)cc2O[C@@H]1c1ccc(O)c(O)c1)c1cc(O)c(O)c(O)c1`: the pEC50 in series [1] was 4.85. The compound further showed an inhibition at 20 µg/mL in series [3] of 90%. Further, in series [4] (Human immunodeficiency virus 1), the pIC50 is less than 4.60. In addition, the inhibition in series [5] turned out to be 0%.

The pEC50 is −log10 of the EC50, conventionally taken in molar units. Lower therefore signals a large EC50. What is called inhibition is the share of the control response that was lost under treatment. Read a low inhibition as a weak effect. Usually pIC50 stands for the IC50 on a negative log10 scale, so that one unit is a factor of ten. Low readings indicate a large IC50, high ones a small IC50.
